Earlier results in patent US4681764A, “Porous and spherical carbonaceous product” (Kureha Kagaku Kogyo Kabushiki Kaisha, priority 1979, dated 1987).

Details: in vivo

## oxidized starch
  stimulation of the intestinal wall: side-reaction of stimulating the intestinal wall
